Test results taken from patent US11420958B2, “Aryl and heteroaryl substituted indole compounds” (BRISTOL-MYERS SQUIBB COMPANY, priority 2017, dated 2022).
pIC50: −log10 of the molar value.

Experiments:
Type in all cases: cell-based
human TLR7 = human TLR7 (Homo sapiens (Human), UniProt Q9NYK1); assay: TLR7 inhibition reporter assay (HEK-Blue, SEAP); conditions: HEK-Blue cells overexpressing human TLR7, gardiquimod 7.5 μM stimulation
Procedure, shortened: (§1)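 SEAP read-out via detection medium after 22 h at 37 °C, 5% CO2; percent inhibition relative to agonist-plus-DMSO and known-inhibitor wells. Agonists: TLR7 gardiquimod 7.5 μM, TLR8 R848 15.9 μM, TLR9 ODN2006 5 nM (final). Compound range 0.05 nM–50 μM, 30 min pre-treatment.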

human TLR8 = human TLR8 (Homo sapiens (Human), UniProt Q9NR97); assay: TLR8 inhibition reporter assay (HEK-Blue, SEAP); conditions: HEK-Blue cells overexpressing human TLR8, R848 15.9 μM stimulation
human TLR8, sequence (Q9NR97 27-1041): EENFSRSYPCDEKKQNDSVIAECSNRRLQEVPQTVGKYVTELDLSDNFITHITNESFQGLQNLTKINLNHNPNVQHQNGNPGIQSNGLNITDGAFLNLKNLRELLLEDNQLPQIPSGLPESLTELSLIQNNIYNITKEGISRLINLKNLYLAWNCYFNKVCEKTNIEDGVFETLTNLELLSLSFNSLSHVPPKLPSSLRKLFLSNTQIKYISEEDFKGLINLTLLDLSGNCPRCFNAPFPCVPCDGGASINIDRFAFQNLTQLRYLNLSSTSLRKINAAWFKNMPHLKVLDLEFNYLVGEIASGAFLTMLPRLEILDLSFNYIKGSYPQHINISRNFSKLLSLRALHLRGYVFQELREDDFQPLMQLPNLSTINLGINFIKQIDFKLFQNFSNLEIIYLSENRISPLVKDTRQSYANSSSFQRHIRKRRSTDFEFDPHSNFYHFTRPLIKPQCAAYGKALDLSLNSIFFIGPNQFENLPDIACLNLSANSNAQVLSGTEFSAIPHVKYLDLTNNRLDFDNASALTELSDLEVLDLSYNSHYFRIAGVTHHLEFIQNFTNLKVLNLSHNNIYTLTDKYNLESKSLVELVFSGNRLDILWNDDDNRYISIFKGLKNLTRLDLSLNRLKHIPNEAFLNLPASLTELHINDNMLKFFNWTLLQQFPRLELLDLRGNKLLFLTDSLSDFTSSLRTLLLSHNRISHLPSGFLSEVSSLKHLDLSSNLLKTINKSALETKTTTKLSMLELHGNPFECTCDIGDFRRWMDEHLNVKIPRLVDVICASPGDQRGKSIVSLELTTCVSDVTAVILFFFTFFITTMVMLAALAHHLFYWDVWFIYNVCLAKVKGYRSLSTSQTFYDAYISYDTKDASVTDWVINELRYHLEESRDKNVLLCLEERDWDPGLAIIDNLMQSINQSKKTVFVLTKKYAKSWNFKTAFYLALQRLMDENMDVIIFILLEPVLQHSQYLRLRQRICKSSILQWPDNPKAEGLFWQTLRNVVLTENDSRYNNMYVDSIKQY
Procedure, shortened: as §1

human TLR9 = human TLR9 (Homo sapiens (Human), UniProt Q9NR96); assay: TLR9 inhibition reporter assay (HEK-Blue, SEAP); conditions: HEK-Blue cells overexpressing human TLR9, ODN2006 5 nM stimulation
human TLR9, sequence (Q9NR96 26-1032): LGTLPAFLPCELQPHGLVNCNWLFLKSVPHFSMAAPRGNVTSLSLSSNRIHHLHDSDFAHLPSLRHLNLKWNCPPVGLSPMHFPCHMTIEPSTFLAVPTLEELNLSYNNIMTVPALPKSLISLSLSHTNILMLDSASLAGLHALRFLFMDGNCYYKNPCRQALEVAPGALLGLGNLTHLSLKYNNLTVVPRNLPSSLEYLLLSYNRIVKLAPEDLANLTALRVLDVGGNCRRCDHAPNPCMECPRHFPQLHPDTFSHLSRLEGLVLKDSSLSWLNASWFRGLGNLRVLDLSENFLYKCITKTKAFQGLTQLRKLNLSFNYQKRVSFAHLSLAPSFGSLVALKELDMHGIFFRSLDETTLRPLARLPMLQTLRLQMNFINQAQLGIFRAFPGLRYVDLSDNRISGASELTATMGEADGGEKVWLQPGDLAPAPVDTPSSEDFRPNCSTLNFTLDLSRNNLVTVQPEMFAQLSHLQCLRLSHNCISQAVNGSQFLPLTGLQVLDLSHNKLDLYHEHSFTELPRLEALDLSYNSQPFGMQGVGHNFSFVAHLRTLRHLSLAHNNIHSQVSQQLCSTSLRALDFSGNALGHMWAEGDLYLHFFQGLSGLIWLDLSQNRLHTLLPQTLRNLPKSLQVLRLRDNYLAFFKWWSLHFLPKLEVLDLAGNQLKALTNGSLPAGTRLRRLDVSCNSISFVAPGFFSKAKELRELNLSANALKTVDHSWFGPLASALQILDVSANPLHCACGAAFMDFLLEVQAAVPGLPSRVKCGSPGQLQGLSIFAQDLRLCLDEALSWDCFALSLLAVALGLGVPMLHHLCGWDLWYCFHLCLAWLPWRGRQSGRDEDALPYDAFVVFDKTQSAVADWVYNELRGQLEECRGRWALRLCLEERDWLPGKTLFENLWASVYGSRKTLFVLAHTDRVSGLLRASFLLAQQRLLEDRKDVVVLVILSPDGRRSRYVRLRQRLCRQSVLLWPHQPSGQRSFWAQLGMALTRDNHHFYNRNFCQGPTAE
Procedure, shortened: as §1

human TLR7, sequence (Q9NYK1 27-1049): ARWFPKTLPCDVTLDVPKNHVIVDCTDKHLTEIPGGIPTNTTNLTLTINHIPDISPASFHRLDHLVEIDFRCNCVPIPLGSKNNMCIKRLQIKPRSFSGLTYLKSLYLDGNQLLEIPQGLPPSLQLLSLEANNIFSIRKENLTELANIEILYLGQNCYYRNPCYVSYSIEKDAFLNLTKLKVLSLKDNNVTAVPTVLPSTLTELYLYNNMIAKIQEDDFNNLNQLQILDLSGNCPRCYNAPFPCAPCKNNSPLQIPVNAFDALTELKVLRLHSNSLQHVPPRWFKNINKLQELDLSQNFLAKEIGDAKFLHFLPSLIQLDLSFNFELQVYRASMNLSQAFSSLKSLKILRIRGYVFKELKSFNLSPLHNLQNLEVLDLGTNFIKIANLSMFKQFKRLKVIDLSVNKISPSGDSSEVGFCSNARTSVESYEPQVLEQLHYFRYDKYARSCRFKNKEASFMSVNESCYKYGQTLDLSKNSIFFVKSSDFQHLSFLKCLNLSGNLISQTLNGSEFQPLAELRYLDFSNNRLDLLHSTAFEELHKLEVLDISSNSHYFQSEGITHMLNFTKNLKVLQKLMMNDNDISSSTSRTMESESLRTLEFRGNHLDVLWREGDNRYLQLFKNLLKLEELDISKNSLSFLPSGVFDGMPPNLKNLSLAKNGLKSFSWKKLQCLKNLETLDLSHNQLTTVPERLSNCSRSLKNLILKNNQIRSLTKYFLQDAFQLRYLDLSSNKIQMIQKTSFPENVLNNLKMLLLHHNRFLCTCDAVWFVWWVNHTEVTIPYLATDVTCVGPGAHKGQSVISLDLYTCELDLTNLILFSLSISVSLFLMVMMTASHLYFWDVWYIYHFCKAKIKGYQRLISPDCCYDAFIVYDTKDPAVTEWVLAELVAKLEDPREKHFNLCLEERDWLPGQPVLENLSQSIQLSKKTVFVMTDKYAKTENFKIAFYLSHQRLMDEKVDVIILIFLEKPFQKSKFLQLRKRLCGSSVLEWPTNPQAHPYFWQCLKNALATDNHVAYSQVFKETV

Row | SMILES | pIC50 (human TLR7) | pIC50 (human TLR8) | pIC50 (human TLR9)
1 | Cc1cc(-c2[nH]c3ccc(-c4cnc(C5CCNCC5)s4)cc3c2C(C)C)ccn1 [Example 199, 5-(3-isopropyl-2-(2-methylpyridin-4-yl)-1H-indol-5-yl)-2-(piperidin-4-yl)thiazole] | 7.43 | 8.31 | 5.96
2 | COc1ccc(-c2[nH]c3ccc(-c4ccc(N5CCN(C(C)=O)CC5)nc4)cc3c2C(C)C)cc1OC [Example 390, 1-(4-(5-(2-(3,4-dimethoxyphenyl)-3-isopropyl-1H-indol-5-yl)pyridin-2-yl)piperazin-1-yl)ethan-1-one] | 6.01 | 7.36 | < 4.30
3 | COc1ccc(-c2[nH]c3ccc(-c4nnc(C(=O)NC5CCN(C(C)C)CC5)o4)cc3c2C(C)C)cc1OC [Example 59, 5-(2-(3,4-dimethoxyphenyl)-3-isopropyl-1H-indol-5-yl)-N-(1-isopropylpiperidin-4-yl)-1,3,4-oxadiazole-2-carboxamide] | 7.26 | 8.21 | 6.03
4 | COc1ccc(-c2[nH]c3ccc(-c4nnc(C5CCN(C(=O)CN(C)C)CC5)o4)cc3c2C(C)C)cc1OC [Example 3, 1-(4-{5-[2-(3,4-dimethoxyphenyl)-3-(propan-2-yl)-1H-indol-5-yl]-1,3,4-oxadiazol-2-yl}piperidin-1-yl)-2-(dimethylamino)ethan-1-one] | 7.55 | 7.89 | 5.91
5 | Cc1cc(-c2[nH]c3ccc(-c4nnc(CCN5CCCCC5)o4)cc3c2C(C)C)ccn1 [Example 260, 2-(3-isopropyl-2-(2-methylpyridin-4-yl)-1H-indol-5-yl)-5-(2-(piperidin-1-yl)ethyl)-1,3,4-oxadiazole] | 6.88 | 8.66 | 5.91
6 | COc1ccc(-c2[nH]c3ccc(-c4cccc(C(=O)N5CCN(CC(=O)NC(C)C)CC5)c4)cc3c2CC(F)(F)F)cc1OC [Example 30, 2-(4-(3-(2-(3,4-dimethoxyphenyl)-3-(2,2,2-trifluoroethyl)-1H-indol-5-yl)benzoyl)piperazin-1-yl)-N-isopropylacetamide] | 5.70 | 6.78 | 4.84
7 | Cc1cc(-c2[nH]c3ccc(-c4nnc(C5CNCCO5)o4)cc3c2C(C)C)ccn1 (stereo not drawn) [Example 70, 2-(5-(3-isopropyl-2-(2-methylpyridin-4-yl)-1H-indol-5-yl)-1,3,4-oxadiazol-2-yl)morpholine] | 7.42 | 8.17 | 5.30
8 | CC(C)c1c(-c2ccnc3[nH]ncc23)[nH]c2ccc(-c3nnc(C(=O)N4CC5CNCC5C4)o3)cc12 (stereo not drawn) [Example 85, (hexahydropyrrolo[3,4-c]pyrrol-2(1H)-yl)(5-(3-isopropyl-2-(1H-pyrazolo[3,4-b]pyridin-4-yl)-1H-indol-5-yl)-1,3,4-oxadiazol-2-yl)methanone] | 6.48 | 8.04 | 6.23
9 | Cc1oc(-c2ccc3[nH]c(-c4ccnc5[nH]ncc45)c(C(C)C)c3c2)nc1C(=O)NCC1CCNC1 (stereo not drawn) [Example 212, 2-(3-isopropyl-2-(1H-pyrazolo[3,4-b]pyridin-4-yl)-1H-indol-5-yl)-5-methyl-N-(pyrrolidin-3-ylmethyl)oxazole-4-carboxamide] | 5.98 | 6.96 | 4.92
10 | CNc1nnc(-c2ccc3[nH]c(-c4ccnc(C)c4)c(C(C)C)c3c2)o1 [Example 346, 5-(3-isopropyl-2-(2-methylpyridin-4-yl)-1H-indol-5-yl)-N-methyl-1,3,4-oxadiazol-2-amine] | 6.80 | 7.49 | < 4.30
11 | COc1ccc(-c2[nH]c3ccc(-c4cccc(C(=O)NCCC5CCCN5C)c4)cc3c2CC(F)(F)F)cc1OC (stereo not drawn) [Example 25, 3-(2-(3,4-dimethoxyphenyl)-3-(2,2,2-trifluoroethyl)-1H-indol-5-yl)-N-(2-(1-methylpyrrolidin-2-yl)ethyl)benzamide] | 6.72 | 7.06 | 5.86
12 | Cc1cc(-c2[nH]c3ccc(-c4cccc(C(=O)NC5CCN(C(C)C)CC5)c4)cc3c2C(C)C)ccn1 [Example 16, 3-(3-isopropyl-2-(2-methylpyridin-4-yl)-1H-indol-5-yl)-N-(1-isopropylpiperidin-4-yl)benzamide] | 6.83 | 7.41 | 4.85
13 | Cc1cc(-c2[nH]c3ccc(-c4ccnc(N5CCN(C(C)C)CC5)c4)cc3c2C(C)C)cc(C)n1 [Example 326, 2-(2,6-dimethylpyridin-4-yl)-3-isopropyl-5-(2-(4-isopropylpiperazin-1-yl)pyridin-4-yl)-1H-indole] | 7.64 | 7.89 | 6.52
14 | CCc1c(-c2ccc(OC)c(OC)c2)[nH]c2ccc(-c3nnc(C(=O)N(C)C)o3)cc12 [Example 38, 5-(2-(3,4-dimethoxyphenyl)-3-ethyl-1H-indol-5-yl)-N,N-dimethyl-1,3,4-oxadiazole-2-carboxamide] | 5.99 | 6.82 | < 4.30
